Source: patent US20260224549A1, “COMPOUNDS, COMPOSITIONS, AND METHODS FOR TREATING, AMELIORATING, AND/OR PREVENTING PAIN” (priority 2023, published 2026)
Several values for one entry are separate records, joined by “and”; a condition that tells them apart may be missing. Equal values may be shown once. Read-outs that look alike come from different tables or passages of the source.

Key:
[1] = in vivo; details: dog, in vivo
Source text: (§1) The chosen dose can be higher, as long as within the pharmacological range.

[2] = tested on: dog; assay: in vivo
Source text: as §1

[3] = tested on: rat
Source text: as §1

[4] = Method: The screen was performed using solvent recrystallizations using different conditions, as well as non-competitive slurry experiments, to manipulate the solid-state form of the test material. Samples generated during the study were characterized using differential scanning calorimetry (DSC), thermogravimetric analysis (TGA), powder X-ray diffraction (XRD), and dynamic vapor sorption (DVS).
To perform the solvent-based portion of the polymorph screen, the test material was recrystallized using various solvents under approximately 78 different crystal growth conditions. The scale of the recrystallization experiments was approximately 1 to 20 mL. The method of changing the crystal growth conditions was by using single and binary arrays of solvent mixtures. The saturation temperature, growth temperature, and evaporation rate were also varied to create additional differences in crystal growth conditions.
Saturated solutions were prepared by agitating excess test material in contact with the various solvent systems at the saturation temperature. The mother liquor was separated from the residual solids by filtration if solids remained in the solution. The mother liquor was then heated above the saturation temperature to dissolve any remaining solids. The temperature of each solution was then adjusted to the growth temperature and a controlled nitrogen shear flow was introduced to begin solvent evaporation.
In addition to the solvent recrystallization experiments, non-competitive slurry experiments were performed to search for new solid-state forms. These experiments rely on solubility differences of different polymorphic form, if the compound exists in different polymorphic forms. As such, only polymorphs having a lower solubility (i.e., increased stability) than the original crystalline form can result from a non-competitive slurry experiment.
Essentially, when a solid is mixed with solvent to create slurry, a saturated solution is formed. The solution is saturated with respect to the polymorphic form dissolved.
The slurry experiments described herein were performed by exposing excess supplied material (i.e., Form A) to solvents and agitating the resulting suspensions for one week at ambient temperature. The solids were filtered and analyzed by XRD to determine the resulting form(s).
Solids generated from the solvent based recrystallization panels and otherwise provided samples were analyzed by powder XRD. To mitigate preferred grain effects, a two dimensional detection system was used to collect all the XRD screening data. The two dimensional detector integrates along the concentric Debye cones which helps reduce pattern variation. If bright spots appear in the conical rings, it indicates strong preferred grain effects that can lead to considerable variability in the observed diffraction patterns including changes in peak intensities.
The analysis entailed cluster analysis and multivariate statistics to group together any patterns that were determined to be statistically the same.
In the dendrogram, each pair of diffraction patterns is connected via a single node, which corresponds to a dissimilarity value (between 0 and 1) on the y-axis. The higher the connecting node is, the more dissimilar the two patterns are. A threshold dissimilarity value (~0.4 in this case) is used to group similar patterns into clusters, which should correspond to different solid state forms. The cluster plot is a 3D representation of the same analysis.

[5] = tested on: rats; details: exposures far above the ED50 in rats
Remark: listed apart in the source
[6] = Panel: Anti-solvent addition, 15 experiments
[7] = Panel: Cooled to −20° C., single solvent, 12 experiments
[8] = Panel: Fast evaporation, binary solvent, 13 experiments
[9] = Panel: Fast evaporation, single solvent, 65° C., 14 experiments
[10] = Panel: Fast evaporation, single solvent, ambient, 24 experiments
[11] = Panel: Non-competitive slurries, 15 experiments
[12] = Total of all panels, 100 experiments

CN(C)C[C@H]1CN(CCc2ccsc2)CC[C@]1(O)c1cccc(C(N)=O)c1 [Compound I, 3-(3S, 4R)-3-((dimethylamino)methyl)-4-hydroxy-1-(2-(thiophen-3-yl)ethyl)piperidin-4-yl-benzamide]
NOAEL [1]: 60 mg/kg/day and 33.3 mg/kg | NOAEL HED for 50 kg subject [2]: 1665 mg | NOAEL HED for 50 kg subject [3]: 485 mg | No. of experiments giving Amorphous Form [4, 6]: 0 | No. of experiments giving Form A [4, 6]: 9 | No. of experiments with No solid recovered [4, 6]: 6 | No. of experiments giving Amorphous Form [4, 7]: 0 | No. of experiments giving Form A [4, 7]: 0 | No. of experiments with No solid recovered [4, 7]: 12 | No. of experiments giving Amorphous Form [4, 8]: 1 | No. of experiments giving Form A [4, 8]: 9 | No. of experiments with No solid recovered [4, 8]: 3 | No. of experiments giving Amorphous Form [4, 9]: 2 | No. of experiments giving Form A [4, 9]: 4 | No. of experiments with No solid recovered [4, 9]: 8 | No. of experiments giving Amorphous Form [4, 10]: 6 | No. of experiments giving Form A [4, 10]: 1 | No. of experiments with No solid recovered [4, 10]: 17 | No. of experiments giving Amorphous Form [4, 11]: 0 | No. of experiments giving Form A [4, 11]: 13 | No. of experiments with No solid recovered [4, 11]: 2 | No. of experiments giving Amorphous Form [4, 12]: 9 | No. of experiments giving Form A [4, 12]: 43 | No. of experiments with No solid recovered [4, 12]: 48 | % of Total experiments giving Amorphous Form ([4]; all panels, 100 experiments): 9% | % of Total experiments giving Form A ([4]; all panels, 100 experiments): 43% | % of Total experiments with No solid recovered ([4]; all panels, 100 experiments): 48% | respiratory depression or other opiate-based adverse effects [5]: no respiratory depression or other opiate-based adverse effects | opiate-associated effects (single dose 20-400 mg): no system opiate-associated effects noted | tolerability (single dose ranging from 20 mg up to 400 mg, healthy subjects): well-tolerated
